Measured values taken from patent publication US20060211606A1, “Peptides” (priority 2005, published 2006).
Where no end group is shown, it is not given here. [ ]: non-standard residue; d: D form.

Tested on: Human Skeletal Muscle Myoblasts (HSMM)
Experiment: HSMM proliferation, BrdU incorporation
Assay type: cell-based
Conditions: 48 hours
Procedure: (A) Peptide A5: HSMM cells at 500 cells/well. Cultivation was carried out for 24 hours in 10% FCS, followed by two washes in serum free medium, stimulation for 48 hours and then treatment with BrdU for 5 hours. Concentrations of 0.1, 1, 10, 100 and 500 ng/ml of peptide A5 were tested, along with 0.1, 1, 10 and 100 ng/ml IGF-I. BrdU incorporation was measured to assess the level of cell proliferation achieved. Controls containing medium only, no cells (BLK), background staining (BG) and 10% FBS were also provided. Values on the Y-axis are for fluorescence (absorbence at 370 nm; mean plus standard error across 4 wells). The first five columns relate to peptide A5 at concentrations of 0.1, 1, 10, 100 and 500 ng/ml. The next column relates to the control containing medium only. The next three relate to IGF-I (See Example 1.5) alone at concentrations of 100, 10 and 0.1 ng/ml. The next three relate to controls containing 10% FBS, background staining and no cells respectively. * means P<0.05 compared to medium only control.
(§1) (B) Peptide AS: HSMM cells at 500 cells/well. […] Concentrations of 0.1, 1, 10, 100 and 500 ng/ml of peptide AS in combination with 2 ng/ml IGF-I were tested, along with 0.1, 1, 10 and 100 ng/ml IGF-I. BrdU incorporation was measured to assess the level of cell proliferation achieved. […] Values on the Y-axis are for fluorescence (absorbence at 370 nm; mean plus standard error across 4 wells). […]
as §1, with “(A)” for “(B)”, “AS” for “AS in combination with 2 ng/ml IGF-I”
(B) Peptide A5: HSMM cells at 500 cells/well. […] Concentrations of 0.1, 1, 10, 100 and 500 ng/ml of peptide AS in combination with 2 ng/ml IGF-I were tested, along with 0.1, 1, 10 and 100 ng/ml IGF-I. BrdU incorporation was measured to assess the level of cell proliferation achieved. […]

Q: With “A5: SEQ ID NO: 15 with D-Arginine at positions 14 and 15, amidated at the C-terminus, not pegylated (YQPPSTNKNTKSQ[dR][dR]KGSTFEEHK-NH2; N-terminus assumed; SMILES C[C@@H](O)[C@H](NC(=O)[C@H](CO)NC(=O)CNC(=O)[C@H](CCCCN)NC(=O)[C@@H](CCCNC(=N)N)NC(=O)[C@@H](CCCNC(=N)N)NC(=O)[C@H](CCC(N)=O)NC(=O)[C@H](CO)NC(=O)[C@H](CCCCN)NC(=O)[C@@H](NC(=O)[C@H](CC(N)=O)NC(=O)[C@H](CCCCN)NC(=O)[C@H](CC(N)=O)NC(=O)[C@@H](NC(=O)[C@H](CO)NC(=O)[C@@H]1CCCN1C(=O)[C@@H]1CCCN1C(=O)[C@H](CCC(N)=O)NC(=O)[C@@H](N)Cc1ccc(O)cc1)[C@@H](C)O)[C@@H](C)O)C(=O)N[C@@H](Cc1ccccc1)C(=O)N[C@@H](CCC(=O)O)C(=O)N[C@@H](CCC(=O)O)C(=O)N[C@@H](Cc1c[nH]cn1)C(=O)N[C@@H](CCCCN)C(N)=O) [Peptide A5]” as the substance, how does the “proliferation of HSMM (BrdU incorporation), with 2 ng/ml IGF-I in the medium” value (A5 in combination with 2 ng/ml IGF-I, P<0.001) read?
A: Its value is “significant effect on the proliferation of HSMM at a higher confidence level”.

Q: And the “proliferation of HSMM (BrdU incorporation), used in isolation” value (A5 significant (P<0.1) at doses of 10 ng/ml and below, IGF-I alone 0.1, 10 and 100 ng/ml)?
A: The value was “significant effect”.
